The results in this text go back to patent US20240116985A1, “STAPLED PEPTIDES AND METHODS THEREOF” (priority 2020, published 2024).

Test [1] has as its target T1, full-length beta-Catenin (Uniprot ID P35222) (Homo sapiens, UniProt P35222).
T1 construct: 10 nM full-length beta-Catenin (Uniprot ID P35222)
T1 sequence (P35222 1-781): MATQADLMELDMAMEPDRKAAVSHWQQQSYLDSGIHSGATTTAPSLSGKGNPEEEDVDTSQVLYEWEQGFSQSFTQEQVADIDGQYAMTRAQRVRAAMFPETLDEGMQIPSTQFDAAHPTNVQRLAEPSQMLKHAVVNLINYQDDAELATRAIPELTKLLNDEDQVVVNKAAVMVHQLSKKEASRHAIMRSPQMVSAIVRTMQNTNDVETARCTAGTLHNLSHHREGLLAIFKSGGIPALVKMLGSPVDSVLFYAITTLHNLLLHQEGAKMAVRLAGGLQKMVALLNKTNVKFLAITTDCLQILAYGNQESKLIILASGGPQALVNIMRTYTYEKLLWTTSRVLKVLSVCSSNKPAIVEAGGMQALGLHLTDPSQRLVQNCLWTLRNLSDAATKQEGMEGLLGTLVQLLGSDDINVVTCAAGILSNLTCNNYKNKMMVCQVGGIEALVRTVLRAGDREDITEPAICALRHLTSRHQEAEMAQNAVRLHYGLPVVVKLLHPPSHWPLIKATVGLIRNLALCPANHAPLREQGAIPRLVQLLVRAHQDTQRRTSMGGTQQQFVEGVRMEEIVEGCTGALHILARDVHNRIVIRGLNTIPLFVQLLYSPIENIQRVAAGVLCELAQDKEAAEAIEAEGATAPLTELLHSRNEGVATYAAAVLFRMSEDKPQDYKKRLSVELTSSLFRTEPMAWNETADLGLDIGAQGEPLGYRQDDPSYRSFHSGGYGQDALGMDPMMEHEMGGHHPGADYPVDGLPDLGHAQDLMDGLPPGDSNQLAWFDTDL
Kind of test: Fluorescence polarization IC50 (beta-catenin / 5FAM-TCF4 10-53 competition). It is filed as binding. The note with it: fluorescence polarization; read-out: beta-Catenin FP IC50. (In fluorescence polarisation assays a small probe gives low polarisation when free and higher when bound to something large.)

Test [2] concerns the target T2, beta-catenin/TCF4 engagement (Homo sapiens, UniProt P35222).
T2 construct: expressed in transfected cells; host or cells: HEK293
T2 sequence (P35222 1-781): T1 sequence (P35222 1-781)
Nature of the test: Nano-BRET target engagement assay (B-cat-Halo & TCF4-Luc in HEK293 cells). As to conditions: read-out: NanoBRET Abs IC50. It is filed as cell-based. A general note: Bioluminescence resonance energy transfer reports proximity on the nanometre scale.

SMILES strings stand for the structures. Where only a bound is given, the exact number is not on record here.

With `CC(=O)N1CCC[C@]12CC=CCCCC[C@@](C)(C(=O)N[C@@H](CC(=O)O)C(=O)N[C@@H](CC(=O)O)C(=O)N[C@@H](C)C(=O)N[C@@H](C)C(=O)N[C@@H](Cc1ccccc1)C(=O)N[C@@H](CC(C)C)C(=O)NC(C)(C)C(=O)N[C@@H](Cc1ccsc1)C(=O)N[C@@H](Cc1csc3ccccc13)C(=O)N[C@@H](CCC(N)=O)C(N)=O)NC(=O)[C@H](CC(C)(C)C)NC(=O)[C@H](CC(=O)O)NC2=O` [I-1978, Ac-PL3-Asp-Npg-S6-Asp-Asp-Ala-Ala-Phe-Leu-Aib-3Thi-BztA-Gln-NH2], the values for the IC50 in test [1] and in test [2] were 145 nM and above 20000 nM, respectively.

Turning to `CC(=O)N1CCC[C@]12CC=CC[C@@](C)(C(=O)N[C@@H](CC(=O)O)C(=O)N[C@@H](CC(=O)O)C(=O)N[C@@H](C)C(=O)N[C@@H](C)C(=O)N[C@@H](Cc1ccccc1)C(=O)N[C@@H](CC(C)C)C(=O)NC(C)(C)C(=O)N[C@@H](Cc1ccsc1)C(=O)N[C@@H](Cc1csc3ccccc13)C(=O)N[C@@H](CCC(N)=O)C(N)=O)NC(=O)[C@H](CC(C)(C)C)NC(=O)[C@H](CC(=O)O)NC2=O` [I-1980, Ac-PL3-Asp-Npg-S3-Asp-Asp-Ala-Ala-Phe-Leu-Aib-3Thi-BztA-Gln-NH2], the IC50 (commonly the midpoint of a concentration-inhibition curve) was 236 nM in test [1] and above 20000 nM in test [2].

Consider `CC(=O)N1CCC[C@]12CCCC[C@@](C)(C(=O)N[C@@H](CC(=O)O)C(=O)N[C@@H](CC(=O)O)C(=O)N[C@@H](C)C(=O)N[C@@H](C)C(=O)N[C@@H](Cc1ccccc1)C(=O)N[C@@H](CC(C)C)C(=O)NC(C)(C)C(=O)N[C@@H](Cc1ccsc1)C(=O)N[C@@H](Cc1csc3ccccc13)C(=O)N[C@@H](CCC(N)=O)C(N)=O)NC(=O)[C@H](CC(C)(C)C)NC(=O)[C@H](CC(=O)O)NC2=O` [I-1983, Ac-PL3-Asp-Npg-S3-Asp-Asp-Ala-Ala-Phe-Leu-Aib-3Thi-BztA-Gln-NH2], for which the IC50 is 186 nM in test [1] and above 20000 nM in test [2].

As for `CC(=O)N1CCC[C@]12CC=CCCCC1(CCCC=CCCCOC(=O)N3CC[C@@](C(=O)N[C@@H](Cc4ccccc4Cl)C(=O)N[C@@H](Cc4csc5ccccc45)C(=O)N[C@@H](C)C(N)=O)(C3)NC(=O)[C@H](C)NC(=O)[C@H](Cc3ccccc3)NC(=O)[C@H](C)NC(=O)[C@H](C)NC(=O)[C@H](Cc3cccc(C(=O)O)c3)NC(=O)[C@H](CC(=O)O)NC1=O)NC(=O)[C@H](CC(C)(C)C)NC(=O)[C@H](CC(=O)O)NC2=O` (stereo partly drawn) [I-2023, Ac-PL3-Asp-Npg-B5-Asp-3COOHF-Ala-Ala-Phe-Ala-PyrS2-2C1F-BztA-Ala-NH2], the half-maximal inhibitory concentration (IC50) was 32 nM in test [1] and 7800 nM in test [2].

`CC(=O)N1CCC[C@]12CC=CCCCC1(CCCC=CCCCOC(=O)N3CC[C@@](C(=O)N[C@@H](Cc4ccccc4Cl)C(=O)N[C@@H](Cc4csc5ccccc45)C(=O)N[C@H](C(N)=O)C(C)C)(C3)NC(=O)[C@H](C)NC(=O)[C@H](Cc3ccccc3)NC(=O)[C@H](C)NC(=O)[C@H](C)NC(=O)[C@H](Cc3cccc(C(=O)O)c3)NC(=O)[C@H](CC(=O)O)NC1=O)NC(=O)[C@H](CC(C)(C)C)NC(=O)[C@H](CC(=O)O)NC2=O` (stereo partly drawn) [I-2024, Ac-PL3-Asp-Npg-B5-Asp-3COOHF-Ala-Ala-Phe-Ala-PyrS2-2C1F-BztA-Val-NH2]: the IC50 in test [1] turned out to be 78 nM; in test [2] it was 17900 nM.

For `CC(=O)N1CCC[C@]12CC=CCCCC1(CCCC=CCCCOC(=O)N3CC[C@@](C(=O)N[C@@H](Cc4ccccc4Cl)C(=O)N[C@@H](Cc4csc5ccccc45)C(=O)N[C@H](C)C(N)=O)(C3)NC(=O)[C@H](C)NC(=O)[C@H](Cc3ccccc3)NC(=O)[C@H](C)NC(=O)[C@H](C)NC(=O)[C@H](Cc3cccc(C(=O)O)c3)NC(=O)[C@H](CC(=O)O)NC1=O)NC(=O)[C@H](CC(C)(C)C)NC(=O)[C@H](CC(=O)O)NC2=O` (stereo partly drawn) [I-2026, Ac-PL3-Asp-Npg-B5-Asp-3COOHF-Ala-Ala-Phe-Ala-PyrS2-2C1F-BztA-dAla-NH2], the half-maximal inhibitory concentration (IC50) in test [1] is 26 nM; in test [2], 9700 nM.

Regarding `CC(=O)N1CCC[C@]12CC=CCCCC1(CCCC=CCCCOC(=O)N3CC[C@@](C(=O)N[C@@H](Cc4ccccc4Cl)C(=O)N[C@@H](Cc4csc5ccccc45)C(=O)N[C@@H](C)C(N)=O)(C3)NC(=O)[C@H](CO)NC(=O)[C@H](Cc3ccccc3)NC(=O)[C@H](C)NC(=O)[C@H](C)NC(=O)[C@H](Cc3cccc(C(=O)O)c3)NC(=O)[C@H](CC(=O)O)NC1=O)NC(=O)[C@H](CC(C)(C)C)NC(=O)[C@H](CC(=O)O)NC2=O` (stereo partly drawn) [I-2027, Ac-PL3-Asp-Npg-B5-Asp-3COOHF-Ala-Ala-Phe-Ser-PyrS2-2C1F-BztA-Ala-NH2], the IC50 in test [1] turned out to be 13 nM; in test [2], 4100 nM.

For `CC(=O)N1CCC[C@]12CC=CCCCC1(CCCC=CCCCOC(=O)N3CC[C@@](C(=O)N[C@@H](Cc4ccccc4Cl)C(=O)N[C@@H](Cc4csc5ccccc45)C(=O)N[C@H](C(N)=O)C(C)C)(C3)NC(=O)[C@H](CO)NC(=O)[C@H](Cc3ccccc3)NC(=O)[C@H](C)NC(=O)[C@H](C)NC(=O)[C@H](Cc3cccc(C(=O)O)c3)NC(=O)[C@H](CC(=O)O)NC1=O)NC(=O)[C@H](CC(C)(C)C)NC(=O)[C@H](CC(=O)O)NC2=O` (stereo partly drawn) [I-2028, Ac-PL3-Asp-Npg-B5-Asp-3COOHF-Ala-Ala-Phe-Ser-PyrS2-2C1F-BztA-Val-NH2], the IC50 in test [1] was found to be 32 nM; in test [2], 17600 nM.

For `CC(=O)N1CCC[C@]12CC=CCCCC1(CCCC=CCCCOC(=O)N3CC[C@@](C(=O)N[C@@H](Cc4ccccc4Cl)C(=O)N[C@@H](Cc4csc5ccccc45)C(=O)N[C@@H](Cc4ccccc4)C(N)=O)(C3)NC(=O)[C@H](CO)NC(=O)[C@H](Cc3ccccc3)NC(=O)[C@H](C)NC(=O)[C@H](C)NC(=O)[C@H](Cc3cccc(C(=O)O)c3)NC(=O)[C@H](CC(=O)O)NC1=O)NC(=O)[C@H](CC(C)(C)C)NC(=O)[C@H](CC(=O)O)NC2=O` (stereo partly drawn) [I-2029, Ac-PL3-Asp-Npg-B5-Asp-3COOHF-Ala-Ala-Phe-Ser-PyrS2-2C1F-BztA-Phe-NH2], the IC50 in test [1] was 35 nM; in test [2], 26200 nM.

Take `CC(=O)N1CCC[C@]12CC=CCCCC1(CCCC=CCCCOC(=O)N3CC[C@@](C(=O)N[C@@H](Cc4ccccc4Cl)C(=O)N[C@@H](Cc4csc5ccccc45)C(=O)N[C@H](C)C(N)=O)(C3)NC(=O)[C@H](CO)NC(=O)[C@H](Cc3ccccc3)NC(=O)[C@H](C)NC(=O)[C@H](C)NC(=O)[C@H](Cc3cccc(C(=O)O)c3)NC(=O)[C@H](CC(=O)O)NC1=O)NC(=O)[C@H](CC(C)(C)C)NC(=O)[C@H](CC(=O)O)NC2=O` (stereo partly drawn) [I-2030, Ac-PL3-Asp-Npg-B5-Asp-3COOHF-Ala-Ala-Phe-Ser-PyrS2-2C1F-BztA-dAla-NH2]: the half-maximal inhibitory concentration (IC50) in test [1] came out at 22 nM; in test [2] it was 3900 nM.

In the case of `CC(=O)N1CCC[C@]12CC=CCCCC1(CCCC=CCCCOC(=O)N3CC[C@@](C(=O)N[C@@H](Cc4ccccc4Cl)C(=O)N[C@@H](Cc4csc5ccccc45)C(=O)N[C@@H](C)C(N)=O)(C3)NC(=O)[C@H](CC(N)=O)NC(=O)[C@H](Cc3ccccc3)NC(=O)[C@H](C)NC(=O)[C@H](C)NC(=O)[C@H](Cc3cccc(C(=O)O)c3)NC(=O)[C@H](CC(=O)O)NC1=O)NC(=O)[C@H](CC(C)(C)C)NC(=O)[C@H](CC(=O)O)NC2=O` (stereo partly drawn) [I-2031, Ac-PL3-Asp-Npg-B5-Asp-3COOHF-Ala-Ala-Phe-Asn-PyrS2-2C1F-BztA-Ala-NH2], the IC50 in test [1] came to 11 nM; in test [2] it was 4700 nM.

With `CC(=O)N1CCC[C@]12CC=CCCCC1(CCCC=CCCCOC(=O)N3CC[C@@](C(=O)N[C@@H](Cc4ccccc4Cl)C(=O)N[C@@H](Cc4csc5ccccc45)C(=O)N[C@H](C(N)=O)C(C)C)(C3)NC(=O)[C@H](CC(N)=O)NC(=O)[C@H](Cc3ccccc3)NC(=O)[C@H](C)NC(=O)[C@H](C)NC(=O)[C@H](Cc3cccc(C(=O)O)c3)NC(=O)[C@H](CC(=O)O)NC1=O)NC(=O)[C@H](CC(C)(C)C)NC(=O)[C@H](CC(=O)O)NC2=O` (stereo partly drawn) [I-2032, Ac-PL3-Asp-Npg-B5-Asp-3COOHF-Ala-Ala-Phe-Asn-PyrS2-2C1F-BztA-Val-NH2], the IC50 in test [1] came out at 16 nM; in test [2] it was 20900 nM.

With `CC(=O)N1CCC[C@]12CC=CCCCC1(CCCC=CCCCOC(=O)N3CC[C@@](C(=O)N[C@@H](Cc4ccccc4Cl)C(=O)N[C@@H](Cc4csc5ccccc45)C(=O)N[C@@H](Cc4ccccc4)C(N)=O)(C3)NC(=O)[C@H](CC(N)=O)NC(=O)[C@H](Cc3ccccc3)NC(=O)[C@H](C)NC(=O)[C@H](C)NC(=O)[C@H](Cc3cccc(C(=O)O)c3)NC(=O)[C@H](CC(=O)O)NC1=O)NC(=O)[C@H](CC(C)(C)C)NC(=O)[C@H](CC(=O)O)NC2=O` (stereo partly drawn) [I-2033, Ac-PL3-Asp-Npg-B5-Asp-3COOHF-Ala-Ala-Phe-Asn-PyrS2-2C1F-BztA-Phe-NH2], the IC50 in test [1] was found to be 30 nM; in test [2], 9500 nM.
